This note sets out measurements from patent US20240099295A1, “CELL TREATMENT AGENT” (AYA Inc., priority 2021, published 2024).

What all share (format): cell-based
Assay [1] relates to rat corneal epithelial cells. Description: Re-adhesion of detached and suspended cells to calcium phosphate film (F-actin fluorescent staining). The source says: Whether the cells having been detached and suspended as described above were re-adhered by calcium ions was examined. Part of the bottom of the culture dish was coated with a slurry of calcium phosphate fine powder mixed with distilled water and dried in an oven to separately prepare a culture dish in which a film of fine powder of calcium phosphate was stuck to the bottom of the dish. Then, to the culture dish with the calcium phosphate film and the culture dish without the film (control), a cell culture solution containing the detached and suspended cells as described above was added, the culture dishes were placed on the base of a shaker (product name: Laboshaker Model BC-740, available from BIO CRAFT Corporation), the shaking intensity was set to the lowest level, the shaking frequency was set to 4 times/min, and the cells were cultured under normal cell culture conditions (37° C., CO2 concentration of 5%, humidity of 100%) for 24 hours while the culture dishes were gently shaken. The culture solution in each culture dish was then removed, and the culture dishes were gently washed with 10% FBS cell culture solution, and then viable cells adhered to the inner wall of the culture dishes were observed under a microscope (inverted fluorescence/visible microscope with cooled CCD camera, IX83, available from Olympus Corporation) by the fluorescent staining method of F-actin using viable cell staining by a fluorescent dye (CytoPainter F-actin Staining Kit, available from Abcam). The fluorescent staining method of F-action can be performed, for example, according to the method described in Vera D M, Robert J E, Ved P S, Orrin S and John S C, “Optimizing leading edge F-actin labeling using multiple actin probes, fixation methods and imaging modalities” BIOTECHNIQUES, VOL. 66, NO. 3, (2019), or in Michael M, Matthias P and Robert G “Actin visualization at a glance” n J. Cell Sci. 130, 525-530. (2017) doi:10.1242/jcs.20448.
In FIGS. 1 to 4, the part that looks white or gray is a viable cell group stained with the fluorescent dye.

The test system of assay [2] is Rat corneal epithelial cell. Kind of assay: Cell detaching and suspending effect under gentle shaking (Experimental Example 5). The following applies: cell culture solution containing 10% FBS, 37° C. As to the method: In the same manner as in Experimental Example 4, rat corneal epithelial cells were sufficiently adhered to the culture dish wall which is a scaffold.
To the culture solutions in the culture dish on which cultured cells obtained in the manner as described above had adhered, each active ingredient was added in a concentration shown in Table 14, or no active ingredient was added. Each culture dish was then placed on the base of a shaker (product name: Laboshaker Model BC-740, available from BIO CRAFT Corporation), the shaking intensity was set to the lowest level, and the shaking frequency was set to 4 times/min, and cells were cultured under normal cell culture conditions (37° C., CO2 concentration of 5%, humidity of 100%) for 24 hours while each culture dish was gently shaken. Then, detachment and suspension of cells after 24 hours of culturing was observed. For determination of detachment and suspension, whether cells were detached from the dish wall and suspended under shaking of the culture dish was observed, and the case where 90% or more of the cells were detached and suspended was determined as “detached and suspended”, and “detached and suspended” cells were marked with “∘” and “undetached and unsuspended” cells were marked with “x”. The results are of N=4.

Assay [3] has as its system Chinese hamster fibroblast. Kind of assay: Cell protective effect: cell survival during preservation (trypan blue excretion test). The following applies: Chinese hamster fibroblasts; same preservation experiments; values not given. As for the experimental part: Using a normal serum-free cell culture solution without FBS or a Ringer's solution (Otsuka Pharmaceutical Co., Ltd., Lactec Injection, Japanese Pharmacopoeia, Sodium L-lactate Ringer's solution) as a conditioning solution for use, for example, in preservation and transportation of cells, sodium alginate (Na alginate) (Fuji Chemical Industry Co., Ltd. Snow Algin SSL, viscosity of 1% aqueous solution is 30 mPa·s at 20° C.) was added to the conditioning solution in the concentrations shown in Table 1 to prepare cell preservation solutions. To each cell preservation solution, the above-described cells were added at a concentration of 10^6 cells/ml to satisfy the conditions shown in Table 1, and the resultant solution was left to stand in a room at normal temperature (22° C.) for 24 hours, and then whether cells were alive or dead was determined, and rates of viable cells (average survival rate (%)) were calculated and compared. Cell viability was determined by the trypan blue excretion test that is the ordinary method of confirming cell viability. The excretion test was performed according to the method described in “Denizot F., et al., Rapid colorimetric assay for cell growth and survival. Modifications to the tetrazolium dye procedure giving improved sensitivity and reliability. J. Immunol. Methods, 89, 271-277 (1986)”. The results are of N=4.
The average survival rate (%) was determined in the same manner as in Experimental Example (1-1-1) except that the preservation conditions were changed to leaving still for 72 hours in a refrigerator at a set temperature of 4° C. The results are of N=4.

The subject of assay [4] is Rat corneal epithelial cell. Kind of assay: Cell dormancy effect: cell cycle analysis by flow cytometry. Particulars: serum-free cell culture solution, cultured 48 hours at 37° C. As for the experimental part:
Sodium alginate (sodium alginate first grade reagent, available from FUJIFILM Wako Pure Chemical Corporation, viscosity of 1% aqueous solution is 120 mPa·s at 20° C.), DS (the same as in Experimental Example 1), or sodium heparin (the same as in Experimental Example 1) was used as an active ingredient in the cell treatment agent, and whether cell dormancy occurs or not by action of the active ingredient was examined by comparing the activities of cell division and proliferation which are the most general cell activities in the following manner.
The cell cycle was analyzed by flow cytometry according to the method described in known literature (Piotr Pozarowski and Zbigniew Darzynkiewicz, “Analysis of Cell Cycle by Flow Cytometry,” Methods in Molecular Biology, vol. 281: Checkpoint Controls and Cancer, Volume 2), and frequency of cell division and proliferation was compared between different active ingredients of the cell treatment agent. A specific method is as follows. Using a normal serum-free cell culture solution as a conditioning solution (comparison reference (a)), (b) a cell preservation solution in which sodium alginate (Na alginate) is added to the conditioning solution in a concentration of 2.5 mg/ml, (c) a cell preservation solution in which DS is added to the conditioning solution in a concentration of 0.1 mg/ml, and (d) a cell preservation solution in which heparin sodium (heparin Na) is added to the conditioning solution in a concentration of 50 units/ml, were prepared. To these cell preservation solutions, rat corneal epithelial cells were added at a cell concentration of 10^5 cells/ml and cultured for 48 hours under normal cell culture conditions (37° C., CO2 concentration of 5%, humidity of 100%). The number of cells in each culture was determined by cell cycle analysis using flow cytometry to determine the number of cells in each cell cycle, and the percentage of cells in the S phase, G2 phase, and M phase, which are considered as the periods of the cell division and proliferation process, was compared with the percentage of cells in the G0 phase and G1 phase, which are considered as other periods. The results are of N=4.

[5] abbreviates: culture dish with calcium phosphate film, 24 hours culture under gentle shaking (FIGS. 1 and 2).
[6] abbreviates: culture dish without calcium phosphate film (control), 24 hours culture under gentle shaking (FIGS. 3 and 4).

On to dextran sulfate [DS], for which the “Re-adhesion of detached and suspended viable cells” value in assay [1] (setting [5]) is “numerous viable cells were observed adhering”; in assay [1] (setting [6]), “a very small number of viable cells adhered”. The “Detachment at lapse of 24 hours after addition of active ingredient” value in assay [2] (DS 0.5 mg/mL) was “∘ (“detached and suspended” cells were marked with “∘”)”. Moreover, the “Effect of improving cell viability (cell protective effect)” value in assay [3] was “the cell protective effect was also observed”. Moreover, in assay [4] (DS 0.1 mg/mL), the “Percentages of cells of each cell cycle: G0 phase + G1 phase” value worked out at 92.4%. Moreover, the “Percentages of cells of each cell cycle: S phase + G2 phase + M phase” value in assay [4] (DS 0.1 mg/mL) worked out at 5.77%.

Regarding “heparin sodium [Heparin Na, reference compound]”, the “Re-adhesion of detached and suspended viable cells” value is on record as “numerous viable cells were observed adhering” in assay [1] (setting [5]) and “a very small number of viable cells adhered” in assay [1] (setting [6]). In assay [2] (Heparin Na 100 units/mL), the “Detachment at lapse of 24 hours after addition of active ingredient” value is “∘ (“detached and suspended” cells were marked with “∘”)”. Further, the “Effect of improving cell viability (cell protective effect)” value in assay [3] was “the cell protective effect was also observed”. Also, the “Percentages of cells of each cell cycle: G0 phase + G1 phase” value in assay [4] (Heparin Na 50 units/mL) is 89.7%. Also, the “Percentages of cells of each cell cycle: S phase + G2 phase + M phase” value in assay [4] (Heparin Na 50 units/mL) turned out to be 7.68%.
